Assay results from patent publication US7572765B2, “Conformationally constrained parathyroid hormone (PTH) analogs” (The General Hospital Corporation, priority 2001, dated 2009).
Square brackets hold non-standard residues; d marks the D form. Peptide text beside a SMILES is read from it. hArg = N=C(N)NCCCC[C@H](N)C(=O)O; Aib = CC(C)(N)C(=O)O

Key:
human P1R = molecular target: T1, human P1R (Homo sapiens, UniProt Q03431); experiment: cAMP stimulation in HKRK-B28 cells; type: cell-based; details: basal 4.0 ± 0.1 pmole/well not subtracted
T1 construct: expressed in transfected cells; host or cells: HKRK-B28 (porcine kidney LLC-PK1, stably transfected)
T1 sequence (Q03431 27-593): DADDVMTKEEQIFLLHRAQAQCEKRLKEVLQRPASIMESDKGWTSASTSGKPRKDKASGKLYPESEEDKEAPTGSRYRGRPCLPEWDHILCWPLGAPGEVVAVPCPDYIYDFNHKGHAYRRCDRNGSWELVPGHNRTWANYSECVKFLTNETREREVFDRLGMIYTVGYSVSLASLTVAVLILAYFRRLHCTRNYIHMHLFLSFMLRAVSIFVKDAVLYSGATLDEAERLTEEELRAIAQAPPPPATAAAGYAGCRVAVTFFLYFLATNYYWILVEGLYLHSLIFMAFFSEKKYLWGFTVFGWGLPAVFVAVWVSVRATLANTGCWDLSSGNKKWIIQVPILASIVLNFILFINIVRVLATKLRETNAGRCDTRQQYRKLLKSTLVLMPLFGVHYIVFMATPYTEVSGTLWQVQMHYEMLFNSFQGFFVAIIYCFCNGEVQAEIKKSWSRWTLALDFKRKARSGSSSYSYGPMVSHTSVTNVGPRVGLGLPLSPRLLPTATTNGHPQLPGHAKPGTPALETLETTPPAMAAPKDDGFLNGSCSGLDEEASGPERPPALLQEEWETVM
Protocol: Cell Culture. The cell line HKRK-B28 (Takasu, H., et al., J. Bone Miner. Res. 14:11-20 (1999)) was derived from the porcine kidney cell line, LLC-PK1 by stable transfection with plasmid DNA encoding the human P1R and expresses ˜280,000 receptors per cell. These cells, as well as COS-7 cells and SaOS-2-B10 cells, were cultured at […] in T-75 flasks ([…]) in Dulbecco's modified Eagle's medium (DMEM) supplemented with fetal bovine serum (10%), penicillin G (20 units/ml), streptomycin sulfate (20 μg/ml) and amphotericin B (0.05 μg/ml) in a humidified atmosphere containing 5% CO2. Stock solutions of EGTA/trypsin and antibiotics were from GIBCO; fetal bovine serum was from Hyclone Laboratories (Logan, Utah). COS-7 cells sub-cultured in 24-well plates were transfected with plasmid DNA (200 ng per well) encoding the wild-type human P1R or truncated human P1R deleted for residues (24-181) (Shimizu, M., et al., J. Biol. Chem. 275:21836-21843 (2000)) that was purified by cesium chloride/ethidium bromide density gradient centrifugation, and FuGENE 6 transfection reagent (Roche Indianapolis Ind.) according to the manufacturer's recommended procedure. All cells, in 24-well plates, were treated with fresh media and shifted to 33° C. for 12 to 24 h prior to assay.
cAMP Stimulation. Stimulation of cells with peptide analogs was performed in 24-well plates. Cells were rinsed with 0.5 mL of binding buffer (50 mM Tris-HCI, […], 5 mM KCl, 2 mM CaCl2, 5% heat-inactivated horse serum, 0.5% fetal bovine serum, adjusted to pH 7.5 with HCl) and treated with 200 μL of cAMP assay buffer (Delbecco's modified Eagle's medium containing 2 mM 3-isobutyl-1-methylxanthine, 1 mg/mL bovine serum albumin, 35 mM Hepes-NaOH, pH 7.4) and 100 μL of binding buffer containing varying amounts of peptide analog (final volume=300 μL). The medium was removed after incubation for 30 to 60 minutes at room temperature, and the cells were frozen on dry ice, lysed with 0.5 mL 50 mM HCl, and refrozen ([…]). The cAMP content of the diluted lysate was determined by radioimmunoassay. The EC50 response values were calculated using nonlinear regression (see below).
Data Calculation. Calculations were performed using Microsoft® Excel. Nonlinear regression analyses of binding and cAMP dose-response data were performed using the four-parameter equation: yp=Min+[(Max−Min)/(1+(IC50/x)^slope)]. The Excel Solver function was utilized for parameter optimization, as described previously (Carter, P. H., et al., Endocrinology 140: 4972-4981 (1999); Bowen, W. P., and Jerman, J. C., Trends in Pharmacol. Sci. 16: 413-417 (1995)). Differences between paired data sets were statistically evaluated using a one-tailed Student's t-test, assuming unequal variances for the two sets.

[1] = Circular dichroism spectroscopy (helical content); type: physicochemical
Protocol: Circular Dichroism. Circular Dichroism spectra were recorded on a Jasco model 710 spectropolarimeter; peptides were analyzed at a concentration of20 μM in 50 mM sodium phosphate buffer pH 7.4, or the same buffer containing 2,2,2-trifluoroethanol at 20% (v/v). Spectroscopic scans were preformed at 20° C. and at wavelengths between […], with data recored at each 1 nM interval. The spectral bandwidth was 1.5 nM and 8 scans were accumulated and averaged for each sample. At each wavelength, the mean residue elipticity [θ×100/l×C×n); where θ is the raw elipticity value (in dimensions of millidegree), l is the sample path length, C=is the molar peptide concentration, and n is the number of residues in the peptide (Bowen, W. P., and Jerman, J. C., Trends in Pharmacol. Sci. 16: 413-417 (1995)). The helical content of each peptide was estimated by dividing [θ] observed at 222 nM for that peptide by −28,100, which is the reported [θ]222obs for a model helical decapeptide (Bowen, W. P., and Jerman, J. C., Trends in Pharmacol. Sci. 16: 413-417 (1995)).
Circular dichroism (CD) spectroscopy was used to analyze the potential effects that the Aib substitutions had on peptide secondary structure when the peptides were free in solution. Samples were analyzed in both aqueous phosphate buffer and in phosphate buffer containing 2,2,2-trifloroethanol, an organic solvent which promotes helical structure in oligopeptides, including PTH peptide fragments (Pellegrini, M., et al., J. Biol. Chem. 273:10420-10427 (1998); Gronwald, W., et al., Biol. Chem. Hoppe Seyler 377:175-186 (1996); Barden, J. A., and Kemp, B. E., Biochemistry 32:7126-7132 (1993)). In phosphate buffer, the helical content of each peptide, estimated from the elipticity observed at 222 nM, was small (≦16%); however, [Aib^1,3,M]PTH(1-14) contained nearly twice as much helix as did [M]PTH(1-14) (16% and 8.1% respectively), as did [Aib^1,3,M]PTH(1-1l), as compared to […] (13% and 7.5% respectively, Table 4). […] The higher helical contents of these two peptides were evident not only from the negative elipticities at […] and 222 nM, but also from the positive elipticities at 192 nM (FIG. 6).

Row | Compound | cAMP EMax(obs.) (human P1R) | further results
1 | CC[C@H](C)[C@H](NC(=O)[C@H](CCC(=O)O)NC(=O)[C@H](C)NC(=O)[C@@H](NC(=O)[C@H](C)N)C(C)C)C(=O)N[C@@H](CCC(N)=O)C(=O)NC(C)(C)C(=O)N[C@@H](CCSC)C(=O)N[C@@H](Cc1c[nH]cn1)C(=O)N[C@@H](CCC(N)=O)C(=O)N[C@@H](CCCCNC(=N)N)C(=O)N[C@@H](C)C(=O)N[C@@H](CCCCN)C(=O)N[C@@H](Cc1c[nH]c2ccccc12)C(N)=O [Aib-7] (H-AVAEIQ[Aib]MHQ[hArg]AKW-NH2) | 275 ± 8 pmole/well | –
2 | CC[C@H](C)[C@H](NC(=O)[C@H](CCC(=O)O)NC(=O)[C@H](C)NC(=O)C(C)(C)NC(=O)[C@H](C)N)C(=O)N[C@@H](CCC(N)=O)C(=O)N[C@@H](CC(C)C)C(=O)N[C@@H](CCSC)C(=O)N[C@@H](Cc1c[nH]cn1)C(=O)N[C@@H](CCC(N)=O)C(=O)N[C@@H](CCCCNC(=N)N)C(=O)N[C@@H](C)C(=O)N[C@@H](CCCCN)C(=O)N[C@@H](Cc1c[nH]c2ccccc12)C(N)=O [Aib-2] (H-A[Aib]AEIQLMHQ[hArg]AKW-NH2) | 168 ± 6 pmole/well | –
3 | CC[C@H](C)[C@H](NC(=O)[C@H](CCC(=O)O)NC(=O)[C@H](C)NC(=O)[C@@H](NC(=O)[C@H](C)N)C(C)C)C(=O)NC(C)(C)C(=O)N[C@@H](CC(C)C)C(=O)N[C@@H](CCSC)C(=O)N[C@@H](Cc1c[nH]cn1)C(=O)N[C@@H](CCC(N)=O)C(=O)N[C@@H](CCCCNC(=N)N)C(=O)N[C@@H](C)C(=O)N[C@@H](CCCCN)C(=O)N[C@@H](Cc1c[nH]c2ccccc12)C(N)=O [Aib-6] (H-AVAEI[Aib]LMHQ[hArg]AKW-NH2) | 116 ± 12 pmole/well | –
4 | CC[C@H](C)[C@H](NC(=O)C(C)(C)NC(=O)[C@H](C)NC(=O)[C@@H](NC(=O)[C@H](C)N)C(C)C)C(=O)N[C@@H](CCC(N)=O)C(=O)N[C@@H](CC(C)C)C(=O)N[C@@H](CCSC)C(=O)N[C@@H](Cc1c[nH]cn1)C(=O)N[C@@H](CCC(N)=O)C(=O)N[C@@H](CCCCNC(=N)N)C(=O)N[C@@H](C)C(=O)N[C@@H](CCCCN)C(=O)N[C@@H](Cc1c[nH]c2ccccc12)C(N)=O [Aib-4] (H-AVA[Aib]IQLMHQ[hArg]AKW-NH2) | 221 ± 10 pmole/well | –
5 | PTH(1-11): unmodified N-terminal PTH(1-11) peptide (SVSEIQLMHNL; Parathyroid hormone; UniProt P01270 32-42, looked up, fragment) | – | [0]222obs × 10^−3, Phos. ([1]; 20 μM peptide, 50 mM phosphate buffer pH 7.4): −1.8; [0]222obs × 10^−3, Phos + TFE ([1]; 20 μM peptide, 50 mM phosphate buffer with trifluoroethanol (20%)): −8.4; helical residues (%), Phos + TFE ([1]; 50 mM phosphate buffer with trifluoroethanol (20%), from elipticity at 222 nM): 30%; helical residues (%), Phos. ([1]; 50 mM phosphate buffer, from elipticity at 222 nM): 6.5%

Further lines, with some results ahead:

Row | cAMP EMax(obs.) (human P1R) | Compound | further results
6 | 273 ± 6 pmole/well | CC[C@H](C)[C@H](NC(=O)[C@H](CCC(=O)O)NC(=O)[C@H](C)NC(=O)[C@@H](NC(=O)[C@H](C)N)C(C)C)C(=O)N[C@@H](CCC(N)=O)C(=O)N[C@@H](CC(C)C)C(=O)N[C@@H](CCSC)C(=O)N[C@@H](Cc1c[nH]cn1)C(=O)N[C@@H](CCC(N)=O)C(=O)N[C@@H](CCCCNC(=N)N)C(=O)N[C@@H](C)C(=O)N[C@@H](CCCCN)C(=O)NC(C)(C)C(N)=O [Aib-14] (H-AVAEIQLMHQ[hArg]AK[Aib]-NH2) | –
7 | 214 ± 22 pmole/well | CC[C@H](C)[C@H](NC(=O)[C@H](CCC(=O)O)NC(=O)[C@H](C)NC(=O)[C@@H](NC(=O)[C@H](C)N)C(C)C)C(=O)N[C@@H](CCC(N)=O)C(=O)N[C@@H](CC(C)C)C(=O)N[C@@H](CCSC)C(=O)N[C@@H](Cc1c[nH]cn1)C(=O)NC(C)(C)C(=O)N[C@@H](CCCCNC(=N)N)C(=O)N[C@@H](C)C(=O)N[C@@H](CCCCN)C(=O)N[C@@H](Cc1c[nH]c2ccccc12)C(N)=O [Aib-10] (H-AVAEIQLMH[Aib][hArg]AKW-NH2) | –
8 | 259 ± 10 pmole/well | CC[C@H](C)[C@H](NC(=O)[C@H](CCC(=O)O)NC(=O)[C@H](C)NC(=O)[C@@H](NC(=O)[C@H](C)N)C(C)C)C(=O)N[C@@H](CCC(N)=O)C(=O)N[C@@H](CC(C)C)C(=O)N[C@@H](CCSC)C(=O)N[C@@H](Cc1c[nH]cn1)C(=O)N[C@@H](CCC(N)=O)C(=O)N[C@@H](CCCCNC(=N)N)C(=O)N[C@@H](C)C(=O)NC(C)(C)C(=O)N[C@@H](Cc1c[nH]c2ccccc12)C(N)=O [Aib-13] (H-AVAEIQLMHQ[hArg]A[Aib]W-NH2) | –
9 | 263 ± 9 pmole/well | CC[C@H](C)[C@H](NC(=O)[C@H](CCC(=O)O)NC(=O)[C@H](C)NC(=O)[C@@H](NC(=O)[C@H](C)N)C(C)C)C(=O)N[C@@H](CCC(N)=O)C(=O)N[C@@H](CC(C)C)C(=O)N[C@@H](CCSC)C(=O)N[C@@H](Cc1c[nH]cn1)C(=O)N[C@@H](CCC(N)=O)C(=O)N[C@@H](CCCCNC(=N)N)C(=O)NC(C)(C)C(=O)N[C@@H](CCCCN)C(=O)N[C@@H](Cc1c[nH]c2ccccc12)C(N)=O [Aib-12] (H-AVAEIQLMHQ[hArg][Aib]KW-NH2) | –
